Each structure is given as a SMILES string.

In the assay the test system is Saccharomyces cerevisiae. Kind of assay: Inhibition of Saccharomyces cerevisiae alpha-glucosidase at 100 uM using p-nitrophenyl alpha-Dglucopyranoside as substrate preincubated for 15 mins followed by substrate addition and measured after 20 mins relative to control.
Take `C=C1C=C[C@]2(C(=O)O)CC[C@]3(C)C(=CC[C@@H]4[C@@]5(C)C[C@@H](O)[C@@H](O)[C@@](C)(CO)[C@@H]5CC[C@]43C)[C@@H]2[C@H]1C`: the inhibition was 3%.
With `C=C1CC[C@]2(C(=O)O)CC[C@]3(C)C(=CC[C@@H]4[C@@]5(C)C[C@@H](O)[C@H](OC(=O)/C=C\c6ccc(O)cc6)[C@@](C)(CO)[C@@H]5CC[C@]43C)[C@@H]2[C@H]1C` the figure was 41.4%; with `CO[C@@H]1C(O)=C2[C@@H]3[C@@H](C)[C@H](C)CC[C@]3(C)CC[C@@]2(C)[C@]2(C)CC[C@H]3C(C)(C)[C@@H](O)CC[C@]3(C)[C@@H]12`, 23.9%.
`C[C@H]1[C@H](C)CC[C@]2(C(=O)O)CC[C@]3(C)C(=CC[C@@H]4[C@@]5(C)C[C@@H](OC(=O)/C=C/c6ccc(O)cc6)[C@H](O)[C@@](C)(CO)[C@@H]5CC[C@]43C)[C@H]12` displayed an inhibition of 67.2%.
With `C=C1CC[C@]2(C(=O)O)CC[C@]3(C)C(=CC[C@@H]4[C@@]5(C)C[C@@H](O)[C@@H](O)[C@@](C)(CO)[C@@H]5CC[C@]43C)[C@@H]2[C@H]1C` the figure was 1.7%; with `C[C@H]1[C@H](C)CC[C@]2(C(=O)O)CC[C@]3(C)C(=CC[C@@H]4[C@@]5(C)C[C@@H](O)[C@H](O)[C@@](C)(COC(=O)/C=C/c6ccc(O)cc6)[C@@H]5CC[C@]43C)[C@H]12`, 67%.
Molecule `C=C1CC[C@]2(C(=O)O)CC[C@]3(C)C(=CC[C@@H]4[C@@]5(C)C[C@@H](O)[C@H](O)[C@@](C)(COC(=O)/C=C\c6ccc(O)cc6)[C@@H]5CC[C@]43C)[C@@H]2[C@H]1C` came in with an inhibition of 38.8%.
For `C[C@H]1[C@H](C)CC[C@]2(CO)CC[C@]3(C)C(=CC(=O)[C@@H]4[C@@]5(C)CC[C@H](O)C(C)(C)[C@@H]5CC[C@]43C)[C@H]12` the value was 34.3%; for `C[C@H]1O[C@H](O[C@H]2[C@H](O)[C@@H](O)[C@@H](O[C@H]3[C@H](O)[C@@H](O)C(O)O[C@@H]3CO)O[C@@H]2CO)[C@H](O)[C@@H](O)[C@@H]1N[C@H]1C=C(CO)[C@@H](O)[C@H](O)[C@H]1O` (stereo partly specified), 72.8%; for `C[C@H]1[C@H](C)CC[C@]2(C(=O)O)CC[C@]3(C)C(=CC[C@@H]4[C@@]5(C)C[C@@H](O)[C@H](OC(=O)/C=C/c6ccc(O)cc6)[C@@](C)(CO)[C@@H]5CC[C@]43C)[C@H]12`, 81.3%.
For `C[C@H]1[C@H](C)CC[C@]2(C(=O)O)CC[C@]3(C)C(=CC[C@@H]4[C@@]5(C)C[C@@H](O)[C@H](OC(=O)/C=C/c6ccc(O)c(O)c6)[C@@](C)(CO)[C@@H]5CC[C@]43C)[C@H]12` the value was 72.8%; for `C=C1CC[C@]2(C(=O)O)CC[C@]3(C)C(=CC[C@@H]4[C@@]5(C)C[C@@H](OC(=O)/C=C/c6ccc(O)cc6)[C@H](O)[C@@](C)(CO)[C@@H]5CC[C@]43C)[C@@H]2[C@H]1C`, 70.1%; for `C=C1CC[C@]2(C(=O)O)CC[C@]3(C)C(=CC[C@@H]4[C@@]5(C)C[C@@H](O)[C@H](OC(=O)/C=C/c6ccc(O)cc6)[C@@](C)(CO)[C@@H]5CC[C@]43C)[C@@H]2[C@H]1C`, 65.8%.
For `C=C1CC[C@]2(C(=O)O)CC[C@]3(C)C(=CC[C@@H]4[C@@]5(C)C[C@@H](O)[C@H](O)[C@@](C)(CO)[C@@H]5CC[C@]43C)[C@@H]2[C@H]1C`, the inhibition came to 13%.
Regarding `C=C1CC[C@]2(C(=O)O)CC[C@]3(C)C(=CC[C@@H]4[C@@]5(C)C[C@@H](O)[C@H](O)[C@@](C)(COC(=O)/C=C/c6ccc(O)cc6)[C@@H]5CC[C@]43C)[C@@H]2[C@H]1C`, the inhibition is 59.9%.
With `C[C@H]1[C@H](C)CC[C@]2(C(=O)O)CC[C@]3(C)C(=CC[C@@H]4[C@@]5(C)C[C@@H](O)[C@H](O)[C@@](C)(COC(=O)/C=C\c6ccc(O)cc6)[C@@H]5CC[C@]43C)[C@H]12` the figure was 59%.

As a reminder, the inhibition is the relative decrease from the control value, in per cent. Lower therefore signals a response near the control.

These data come from ChEMBL document CHEMBL4616660, “Phenylpropanoid-Conjugated Triterpenoids from the Leaves of Actinidia arguta and Their Inhibitory Activity on α-Glucosidase” (J Nat Prod, 2020).
